Measurements from patent publication US20050143321A1, “Composition with stabilized redox properties and method of stabilization of redox properties” (priority 2002, published 2005).

Experiments:
[1] = system: Klebsiella pneumoniae; test: Sensitivity of bacteria to antibiotics dissolved in composition, diffusion into nutrient agar; assay type: cell-based; parameters: Rate of increase of sensitivity of bacteria (increase of diameters of zones of suppression vs control): concentration or dose not given beside the values; conditions: for Rate of increase of sensitivity of bacteria (increase of diameters of zones of suppression vs control): Clebsiella, antibiotic dissolved in composition pH=7.9, Eh=−230 mV
Description: (§1) It was used the method of preparations diffusion into nutrient agar. […] It was used sterilized water with Eh=250 mV, SCE, pH=7.9 and mineralization 350 mg/l for control.

[2] = system: Salmonella sp.; test: as above; assay type: cell-based; parameters: Rate of increase of sensitivity of bacteria (increase of diameters of zones of suppression vs control): concentration or dose not given beside the values; conditions: for Rate of increase of sensitivity of bacteria (increase of diameters of zones of suppression vs control): Salmonella, antibiotic dissolved in composition pH=7.9, Eh=−230 mV; for change of strain sensitivity: antibiotic dissolved in composition
Description: as §1

[3] = system: Shigella sp.; test: as above; assay type: cell-based; conditions: for Rate of increase of sensitivity of bacteria (increase of diameters of zones of suppression vs control): Shigella, antibiotic dissolved in composition pH=7.9, Eh=−230 mV; for change of strain sensitivity: antibiotic dissolved in composition
Description: as §1

[4] = system: S. aureus; test: as above; assay type: cell-based; conditions: for Rate of increase of sensitivity of bacteria (increase of diameters of zones of suppression vs control): Staphylococcus, antibiotic dissolved in composition pH=7.9, Eh=−230 mV
Description: as §1

[5] = Stabilization of redox properties of water solution, 6 months storage at 50° C after autoclaving; assay type: physicochemical; conditions: autoclaved
Description: Water from water supply system with initial characteristics: Eh=+260 mV, SCE, and pH 6.7, is directed to the device of “Izumrud”-type, which is manufactured in Russia. On the output characteristics of water have the values: […] After sterilization these flasks with mentioned water solutions are put into the thermostat at temperature 50° C. Flasks with water solutions corresponding to this invention and stored at the mentioned temperature, protected from light, during 6 months. After 6 months flasks are opened, and the redox potential is measured.

[6] = Content of MDA in liposome dispersions (oxidation of phospholipids); assay type: physicochemical; conditions: Yolk lecithin liposomes; 1 hour
Description: In the experiment liposomes are made by mixing and ultrasound treatment of phospholipids of yolk and the water solution, corresponding to this invention, with specified redox properties, containing glycine. Liposomes, prepared by this method, are the milk-white suspension. […] Electrochemically activated water: anomalous properties, mechanism of biological effect. Moscow 1997, […]. 152). There was also determined the rate of oxidation of phospholipids according to content of dialdehyde malonate (DMA).

[7] = antibiotic dissolved in composition

Molecule	Rate of increase of sensitivity of bacteria (increase of diameters of zones of suppression vs control) [1] [%]	Rate of increase of sensitivity of bacteria (increase of diameters of zones of suppression vs control) [2] [%]	Rate of increase of sensitivity of bacteria (increase of diameters of zones of suppression vs control) [3] [%]	Rate of increase of sensitivity of bacteria (increase of diameters of zones of suppression vs control) [4] [%]	pH after 6 months ([5]; 0.005% of weight)	pH after 6 months ([5]; 0.5% of weight)	pH after 6 months ([5]; 10% of weight)	other results
NCC[C@H](O)C(=O)N[C@@H]1C[C@H](N)[C@@H](O[C@H]2O[C@H](CN)[C@@H](O)[C@H](O)[C@H]2O)[C@H](O)[C@H]1O[C@H]1O[C@H](CO)[C@@H](O)[C@H](N)[C@H]1O [Amicacin]	34	18	38	4	–	–	–	change of sensitivity [1, 7]: increased; change of strain sensitivity [3]: from medium sensitive to sensitive
CC1(C)S[C@@H]2[C@H](NC(=O)[C@H](N)c3ccccc3)C(=O)N2[C@H]1C(=O)O [Ampicillin]	7	26	44	22	–	–	–	change of strain sensitivity [2]: from medium sensitive to sensitive; change of strain sensitivity [3]: from resistant to sensitive; change of sensitivity [4, 7]: increased
NC(=O)C[C@H](N)C(=O)O [Asparagine]	–	–	–	–	5.9	6.9	7.0	–
O=C(N[C@H](CO)[C@H](O)c1ccc([N+](=O)[O-])cc1)C(Cl)Cl [Chloramphenicol]	5	6	17	3	–	–	–	–
N[C@@H](CS)C(=O)O [Cysteine]	–	–	–	–	7.3	7.8	6.9	–
NC(=O)CC[C@H](N)C(=O)O [Glutamine]	–	–	–	–	5.8	7.2	7.2	–
NCC(N)=O [Glycine amide]	–	–	–	–	6.5	7.4	7.0	–
NCC(=O)O [Glycine]	–	–	–	–	7.2	7.9	7.7	–
NC[C@H]1O[C@H](O[C@H]2[C@H](O)[C@@H](O[C@H]3O[C@H](CO)[C@@H](O)[C@H](N)[C@H]3O)[C@H](N)C[C@@H]2N)[C@H](O)[C@@H](O)[C@@H]1O [Kanamycin]	12	18	35	8	–	–	–	–
CCn1cc(C(=O)O)c(=O)c2ccc(C)nc21 [Nalidixic acid]	11	42	33	3	–	–	–	change of strain sensitivity [2]: from resistant to sensitive
N[C@@H](CO)C(=O)O [Serine]	–	–	–	–	7.1	7.8	7.6	–
C[C@@H](O)[C@H](N)C(=O)O [Threonine]	–	–	–	–	7.1	7.5	7.4	–
N[C@@H](Cc1ccc(O)cc1)C(=O)O [Tyrosine]	–	–	–	–	7.2	7.4	7.2	Eh after 6 months ([5]; 0.005% of weight): −5 mV; Eh after 6 months ([5]; 0.5% of weight): −80 mV; Eh after 6 months ([5]; 10% of weight): −30 mV
Cc1cc(C(C)(C)C)c(O)c(C(C)(C)C)c1 [Water + agidol (1.0%), agidol]	–	–	–	–	–	–	–	Content of MDA [6]: 2.0 nmol/mL
Cc1cc(C(C)(C)C)c(O)c(C(C)(C)C)c1 [Water + butyl-hydroxytoluene (0.1%), butyl-hydroxytoluene]	–	–	–	–	–	–	–	Content of MDA [6]: 2.7 nmol/mL
CC(=O)Oc1c(C)c(C)c2c(c1C)CCC(C)(CCC[C@H](C)CCC[C@H](C)CCCC(C)C)O2 (some centres unmarked) [Water + tocopherol acetate (2%), tocopherol acetate]	–	–	–	–	–	–	–	Content of MDA [6]: 3.1 nmol/mL
Gelatin	–	–	–	–	6.8	7.3	7.6	–
Gentamycin	6	47	40	11	–	–	–	change of strain sensitivity [2]: from resistant to sensitive; change of strain sensitivity [3]: from resistant to sensitive
